# Results as given in patent US9827236B2, “Method of inhibiting the glycation of nutrient and endogenous proteins and peroxidation of nutrient and endogenous lipids” (priority 2014, dated 2017).
# Legend:
# [1] = system: nutrient protein (lysine) in the presence of reducing sugars; assay: Inhibition of nutrient protein glycation, in vitro, absorbance by spectrophotometer
# Procedure: Percentage inhibition was determined using an in vitro experiment. Lysine was used to simulate the nutrient protein.
# In one embodiment of the present application, glycation is induced in the nutrient proteins by combining them with different types of sugars and thermally processing the combination at various temperatures and with various levels of alkalinity. The processing is repeated by adding the identified glycation inhibitor. The nutrient protein in this case could be lysine or any other nutrient protein in liquid, semisolid or solid form.
# (§1) The effectiveness of the inhibiting agents and their combinations were ascertained using a series of in vitro experiments with nutrient lysine or collage protein, various sugars, natural polyunsaturated fatty acids and monounsaturated fatty acids and natural, pure form of inhibiting agents in extract forms. Absorbance values, measured using a spectrophotometer, were used to determine and compare formation of glycated proteins. Industry standard iodometric titration was used to determine and compare peroxidation levels in lipids.
# (§2) In the case of inhibition of nutrient protein glycation and nutrient lipid peroxidation for disease prevention, it is recommended that the amount of inhibiting agent to be combined with the nutrient protein or nutrient lipid be as shown in the Table 1. Further, a combination of such inhibiting agents could be applied to increase the effectiveness of inhibition.
# [2] = system: nutrient lipid (PUFA, MUFA) peroxidation; assay: Inhibition of nutrient lipid peroxidation, in vitro, iodometric titration
# Procedure: Percentage inhibition was determined using an in vitro experiment. Olive oil, a polyunsaturated fatty acid (PUFA) and safflower oil, a monounsaturated fatty acid (MUFA) were used to simulate nutrient lipids.
# In another embodiment, peroxidation is induced in nutrient lipids by thermally processing them at various temperatures and with various levels of alkalinity. The processing is repeated by adding the identified peroxidation inhibitor. The nutrient lipid in this case could be polyunsaturated fatty acid or monounsaturated fatty acid in liquid, semisolid or solid form.
# as §1, §2
# [3] = system: nutrient protein (lysine); assay: Effect of temperature on protein glycation, in vitro, spectrophotometer; conditions: for % decrease in AGE formation from 100 to 60 deg C.: protein glycation
# Description: (§3) In one embodiment of the present application, glycation is induced in the nutrient proteins by combining them with different types of sugars and thermally processing the combination at various temperatures and with various levels of alkalinity. The processing is repeated by adding the identified glycation inhibitor. The nutrient protein in this case could be lysine or any other nutrient protein in liquid, semisolid or solid form. In the context of this invention, thermal processing implies heating the food at various temperatures using any method of cooking such as baking, roasting, frying, boiling, etc. […] The effectiveness of the inhibiting agents and their combinations were ascertained using a series of in vitro experiments with nutrient lysine or collage protein, various sugars, natural polyunsaturated fatty acids and monounsaturated fatty acids and natural, pure form of inhibiting agents in extract forms. Absorbance values, measured using a spectrophotometer, were used to determine and compare formation of glycated proteins. Industry standard iodometric titration was used to determine and compare peroxidation levels in lipids.
# [4] = system: nutrient protein (lysine); assay: Effect of pH variation on protein glycation, in vitro, spectrophotometer; conditions: for % decrease om AGE formation with decreasing pH: protein glycation
# Description: as §3
Molecule,"Concentration needed for 50% inhibition, Protein Glycation [1]","Concentration needed for 50% inhibition, Lipid Peroxidation [2]",Absorbance at different temperatures ([3]; 60 deg C.),Absorbance at different temperatures ([3]; 80 deg C.),Absorbance at different temperatures ([3]; 100 deg C.),% decrease in AGE formation from 100 to 60 deg C. [3],Absorbance at different pH values ([4]; pH 8),Absorbance at different pH values ([4]; pH 10),Absorbance at different pH values ([4]; ph 4),% decrease om AGE formation with decreasing pH [4]
"O=C1O[C@H]([C@@H](O)CO)C(O)=C1O [Antioxidant (Ascorbic Acid), Ascorbic Acid]",7%,11%,–,–,–,–,–,–,–,–
"NC(=O)c1cccnc1 [Antioxidant (Niacinamide), Niacinamide]",15%,13%,–,–,–,–,–,–,–,–
"O=C(O[C@@H]1Cc2c(O)cc(O)cc2O[C@@H]1c1cc(O)c(O)c(O)c1)c1cc(O)c(O)c(O)c1 [Catechin (EGCG), EGCG]",13%,9%,–,–,–,–,–,–,–,–
"NCCC(=O)N[C@@H](Cc1cnc[nH]1)C(=O)O [Chelating agent (Carnosine), Carnosine]",16%,12%,–,–,–,–,–,–,–,–
O=C(CO)[C@@H](O)[C@H](O)[C@H](O)CO [Fructose],–,–,0.1,0.37,0.5,79.1%,0.5,0.65,0.07,89.4%
OC[C@H]1O[C@@H](O[C@H]2[C@H](O)[C@@H](O)C(O)O[C@@H]2CO)[C@H](O)[C@@H](O)[C@H]1O (some centres unmarked) [Lactose],–,–,0.06,0.18,0.17,67.9%,0.17,0.22,0.02,90.8%
OC[C@H]1O[C@H](O[C@H]2[C@H](O)[C@@H](O)[C@H](O)O[C@@H]2CO)[C@H](O)[C@@H](O)[C@@H]1O [Maltose],–,–,0.04,0.22,0.22,80.0%,0.22,0.26,0.04,84.4%
"Oc1ccc(C=Cc2cc(O)cc(O)c2)cc1 [Phenol (Resveratrol), Resveratrol]",10%,8%,–,–,–,–,–,–,–,–
O=C[C@H](O)[C@H](O)[C@H](O)CO [Ribose],–,–,0.13,0.52,0.59,78.1%,0.59,0.79,0.09,88.4%
Tocopherol [Antioxidant (Tocopherol)],17%,15%,–,–,–,–,–,–,–,–
